Results: patent US20240262814A1, “MODULATORS OF TREX1” (Constellation Pharmaceuticals, Inc., priority 2021, published 2024)

Columns and labels:
human TREX2 = target: T1, human TREX2 (Homo sapiens, UniProt Q9BQ50); assay: hTREX2 Biochemical Assay (selectivity hTREX1 vs hTREX2); conditions: biochemical selectivity for hTREX1 vs hTREX2
T1 construct: human TREX2 (residues M44-A279, expressed in E. coli); made in house; host or cells: E. coli
T1 sequence (Q9BQ50 44-279 isoform Q9BQ50-1): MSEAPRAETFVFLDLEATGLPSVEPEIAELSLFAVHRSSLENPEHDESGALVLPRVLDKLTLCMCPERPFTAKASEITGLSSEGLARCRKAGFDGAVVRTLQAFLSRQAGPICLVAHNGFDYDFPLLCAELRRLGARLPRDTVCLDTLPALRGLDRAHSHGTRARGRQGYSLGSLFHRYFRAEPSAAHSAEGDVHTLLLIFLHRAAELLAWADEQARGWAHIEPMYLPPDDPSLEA
In short: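 His-Tev-tagged human TREX2 (M44-A279, E. coli-expressed) preincubated with compound (10-point dose-response) for 4 h at 25 °C in Tris pH 7.4 buffer with 5 mM MgCl2. Reaction then run with 60 nM TEX615/quencher dsDNA and 50 pM enzyme (1% DMSO) for 18 h at 25 °C and EDTA-quenched. Fluorescence read at 615 nm (ex 570 nm); IC50 by four-parameter fit against pre-quenched and no-inhibitor controls.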

human TREX1 = target: T2, human TREX1 (Homo sapiens, UniProt Q9NSU2); assay: hTREX1 Biochemical Assay (fluorescence, dsDNA substrate degradation); conditions: full length human TREX1, 4 h pre-incubation, 18 h reaction at 25° C.
T2 construct: N-terminally His-Tev tagged full length human TREX1; made in house; host or cells: E. coli
T2 sequence (Q9NSU2 1-314): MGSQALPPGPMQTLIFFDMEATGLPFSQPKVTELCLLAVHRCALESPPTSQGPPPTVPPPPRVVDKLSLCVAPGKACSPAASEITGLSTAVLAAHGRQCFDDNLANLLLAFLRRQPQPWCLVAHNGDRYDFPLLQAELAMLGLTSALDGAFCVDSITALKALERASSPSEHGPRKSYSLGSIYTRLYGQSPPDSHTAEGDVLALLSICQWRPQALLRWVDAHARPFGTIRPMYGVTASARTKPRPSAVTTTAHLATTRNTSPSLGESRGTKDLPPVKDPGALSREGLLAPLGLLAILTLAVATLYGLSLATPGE
In short: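 His-Tev-tagged full-length E. coli-expressed enzyme (4 pM final) preincubated with compound 4 h at 25° C., then 60 nM quenched-fluorophore dsDNA added in Tris pH 7.4, 5 mM MgCl2, 1% DMSO. After 18 h at 25° C., EDTA-quenched; fluorescence 615 nm (ex 570 nm); IC50 from four-parameter fit versus EDTA and no-inhibitor controls.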

SMILES	hTREX1 vs hTREX2 selectivity (human TREX2)	IC50 (human TREX1)
CC(c1nc(C(=O)Nc2cnoc2)c(O)c(=O)n1C)C(c1ccccc1)c1cc(Cl)ccc1C#N (single isomer, unassigned) [Example 8 Isomer 2]	C (C = >50 fold selective for hTREX1)	< 1 nM
C[C@H](c1nc(C(=O)Nc2cnoc2)c(O)c(=O)n1C)[C@H](c1ccccc1)c1ccccc1C(F)(F)F (single isomer, unassigned) [Example 14 Isomer 2, 5-Hydroxy-N-(isoxazol-4-yl)-1-methyl-6-oxo-2-(1-phenyl-1-(2-(trifluoromethyl)phenyl)propan-2-yl)-1,6-dihydropyrimidine-4-carboxamide]	C (C = >50 fold selective for hTREX1)	1 to 10 nM
CC(c1nc(C(=O)Nc2cnoc2)c(O)c(=O)n1C)C(c1ccccc1)c1ccc(Cl)cc1C#N (single isomer, unassigned) [Example 9 Isomer 4]	B (B = 25 to 50 fold selective for hTREX1)	< 1 nM
Cn1c([C@@H](C(c2ccccc2C#N)c2ccccc2C#N)C(F)(F)F)nc(C(=O)Nc2cnoc2)c(O)c1=O (single isomer, unassigned) [Example 21 Isomer 1, 2-(3,3-bis(2-cyanophenyl)-1,1,1-trifluoropropan-2-yl)-5-hydroxy-N-(isoxazol-4-yl)-1-methyl-6-oxo-1,6-dihydropyrimidine-4-carboxamide]	C (C = >50 fold selective for hTREX1)	< 1 nM
CC(c1nc(C(=O)Nc2cnoc2)c(O)c(=O)n1C)C(c1ccccc1)c1ccccc1 (single isomer, unassigned) [Example 1 Isomer 1, 2-(1,1-diphenylpropan-2-yl)-5-hydroxy-N-(isoxazol-4-yl)-1-methyl-6-oxo-1,6-dihydro pyrimidine-4-carboxamide]	A (A = <25 fold selective for hTREX1)	> 100 nM
C[C@H](c1nc(C(=O)Nc2cnoc2)c(O)c(=O)n1C)[C@H](c1ccccc1)c1ccccc1Cl (single isomer, unassigned) [Example 2 Isomer 3, 2-(1-(2-chlorophenyl)-1-phenylpropan-2-yl)-5-hydroxy-N-(isoxazol-4-yl)-1-methyl-6-oxo-1,6-dihydropyrimidine-4-carboxamide]	B (B = 25 to 50 fold selective for hTREX1)	< 1 nM
CC(c1nc(C(=O)Nc2cnoc2)c(O)c(=O)n1C)C(c1ccccc1)c1ccccc1 (single isomer, unassigned) [Example 1 Isomer 2, 2-(1,1-diphenylpropan-2-yl)-5-hydroxy-N-(isoxazol-4-yl)-1-methyl-6-oxo-1,6-dihydro pyrimidine-4-carboxamide]	A (A = <25 fold selective for hTREX1)	1 to 10 nM
Cn1c([C@H](C(c2ccccc2)c2ccccc2)C(F)(F)F)nc(C(=O)Nc2cnoc2)c(O)c1=O (single isomer, unassigned) [Example 20 Isomer 1, 5-Hydroxy-N-(isoxazol-4-yl)-1-methyl-6-oxo-2-(1,1,1-trifluoro-3,3-diphenylpropan-2-yl)-1,6-dihydropyrimidine-4-carboxamide]	A (A = <25 fold selective for hTREX1)	10 to 100 nM
CC(c1nc(C(=O)Nc2cnoc2)c(O)c(=O)n1C)C(c1ccccc1)c1cc(C(=O)N(C)C)ccc1C#N (single isomer, unassigned) [Example 17 Isomer 3]	B (B = 25 to 50 fold selective for hTREX1)	< 1 nM
CC(c1nc(C(=O)Nc2cnoc2)c(O)c(=O)n1C)C(c1ccccc1)c1ccccc1C#N (single isomer, unassigned) [Example 3 Isomer 4]	B (B = 25 to 50 fold selective for hTREX1)	< 1 nM
CC(c1nc(C(=O)Nc2cnoc2)c(O)c(=O)n1C)C(c1ccccc1C#N)c1ccccc1C#N (single isomer, unassigned) [Example 4 Isomer 2]	C (C = >50 fold selective for hTREX1)	< 1 nM
CC(c1nc(C(=O)Nc2cnoc2)c(O)c(=O)n1C)C(c1ccccc1)c1cc(F)ccc1C#N (single isomer, unassigned) [Example 6 Isomer 4]	B (B = 25 to 50 fold selective for hTREX1)	< 1 nM
CC(c1nc(C(=O)Nc2cnoc2)c(O)c(=O)n1C)C(c1ccccc1Cl)c1ccccc1C#N (single isomer, unassigned) [Example 10 Isomer 1]	C (C = >50 fold selective for hTREX1)	< 1 nM
C[C@H](c1nc(C(=O)Nc2cnoc2)c(O)c(=O)n1C)C(c1ccccc1Cl)c1ccccc1Cl (single isomer, unassigned) [Example 15 Isomer 1, 2-(1,1-bis(2-chlorophenyl)propan-2-yl)-5-hydroxy-N-(isooxazol-4-yl)-1-methyl-6-oxo-1,6-dihydropyrimidine-4-carboxamide]	C (C = >50 fold selective for hTREX1)	< 1 nM
CC(c1nc(C(=O)Nc2cnoc2)c(O)c(=O)n1C)C(c1cc(F)cc(F)c1)c1ccccc1C#N (single isomer, unassigned) [Example 11 Isomer 3]	B (B = 25 to 50 fold selective for hTREX1)	< 1 nM
